Assays:
APP/PS1 transgenic mice = experiment: Morris water maze probe test in APP/PS1 transgenic mice; format: in vivo; conditions: for Adjusted average distance of approaching to platform / Swimming path, I quadrant occupancy of platform / first time of crossing platform / time spent of IV quadrant / time, I quadrant occupancy of platform / times of crossing platform: probe test on 5th day, n = 10
Protocol: 1. […] 2. APP/PS1 transgenic mice (Model Animal Research Center of Nanjing University, weights of mice are from 30 g to 40 g, male, totally 60 mice). Sixty mice are randomized to six groups (group 2 to group 7) with ten mice for each group. […] group: 0.15 mg/mL […] solution is obtained by grinding one tablet (5 mg) of […] into powder, followed by dissolved in 0.5% CMC (carboxymethylcellulose). Morris water maze (Experimental video analysis system of Morris water maze, JLBehv-MWMG, Shanghai Jiliang Technology Co., Ltd) Group 1 and group 2 are daily administrated by normal saline and group 3 to group 7 are daily administrated by drug solutions prepared above, with the dosage of 1 mL/100 g/day for continuous one month. From the fifth week, mice are training in Morris water maze, 30 minutes after drug administration. The training session lasts for 4 days. The probe test performed on the 5th day. The Morris water maze statistics software is used to automatically record and analyze the swimming trace in the quadrant, time spent and path in target or opposite quadrant occupancy and times of crossing platform. The data is indicated as average±standard deviation (x±SD). The analysis of variance for a single factor is used for data difference statistics. Difference between groups is determined by P<0.05.

[1] = Hygroscopicity by dynamic vapor sorption (DVS) analysis; format: physicochemical; conditions: for hygroscopicity: DVS
Protocol: Dynamic Vapor Sorption (DVS) curves of the polymorphs are measured on SMS DVS Intrinsic at 0-95% RH and 25° C.
The compound stably exists as a nonahydrate by dynamic vapor sorption analysis. It forms monohydrate under the scope of relative humidity (RH) from 20% to 50%. It forms dihydrate under the scope of relative humidity (RH) from 70% to 100%. It could forms polyhydrate with further increased relative humidity (RH).
Under the scope of relative humidity (RH) from 5% to 95%, the hygroscopicity of the intermediate A of pyrroloquinoline quinine lithium salt and the crystalline form B of pyrroloquinoline quinine lithium salt from example 1 is measured by dynamic vapor sorption analysis. […] The crystalline solid is not good. The hygroscopicity of the crystalline form B of pyrroloquinoline quinine lithium salt is 8.4% and 13.9% under the relative humidity (RH) of 65% and 80%, respectively. […] The crystalline solid is not good.

[2] = system: glycogen synthase kinase-3 (GSK-3); conditions: background statement, no data; cited from earlier work
[3] = 0.375 mg/kg daily for one month

COc1cc2c(cc1OC)C(=O)C(CC1CCN(Cc3ccccc3)CC1)C2 (stereo not shown) [Aricept, reference compound]
Adjusted average distance of approaching to platform (APP/PS1 transgenic mice; 1.5 mg/kg daily for one month): 582.7 mm | Swimming path, I quadrant occupancy of platform (APP/PS1 transgenic mice; 1.5 mg/kg daily for one month): 2730.8 mm | first time of crossing platform (APP/PS1 transgenic mice; 1.5 mg/kg daily for one month): 30.7 s | time spent of IV quadrant (APP/PS1 transgenic mice; 1.5 mg/kg daily for one month): 21.7 s | time, I quadrant occupancy of platform (APP/PS1 transgenic mice; 1.5 mg/kg daily for one month): 9.3 s | times of crossing platform (APP/PS1 transgenic mice; 1.5 mg/kg daily for one month): 1.6

O=C([O-])c1cc(C(=O)[O-])c2c(n1)C(=O)C(=O)c1cc(C(=O)[O-])[nH]c1-2.[Li+].[Li+].[Li+] [PQQ-Li, trilithium derivative of pyrroloquinoline quinine]
Adjusted average distance of approaching to platform (APP/PS1 transgenic mice; [3]): 762.6 mm | Swimming path, I quadrant occupancy of platform (APP/PS1 transgenic mice; [3]): 961.6 mm | first time of crossing platform (APP/PS1 transgenic mice; [3]): 44.9 s | time spent of IV quadrant (APP/PS1 transgenic mice; [3]): 12.4 s | time, I quadrant occupancy of platform (APP/PS1 transgenic mice; [3]): 2.8 s | times of crossing platform (APP/PS1 transgenic mice; [3]): 0.8 | Adjusted average distance of approaching to platform (APP/PS1 transgenic mice; 0.75 mg/kg daily for one month): 674.9 mm | Swimming path, I quadrant occupancy of platform (APP/PS1 transgenic mice; 0.75 mg/kg daily for one month): 2029.9 mm | first time of crossing platform (APP/PS1 transgenic mice; 0.75 mg/kg daily for one month): 31.3 s | time spent of IV quadrant (APP/PS1 transgenic mice; 0.75 mg/kg daily for one month): 15.8 s | time, I quadrant occupancy of platform (APP/PS1 transgenic mice; 0.75 mg/kg daily for one month): 6.4 s | times of crossing platform (APP/PS1 transgenic mice; 0.75 mg/kg daily for one month): 1.6 | Adjusted average distance of approaching to platform (APP/PS1 transgenic mice; 1.5 mg/kg daily for one month): 605.6 mm | Swimming path, I quadrant occupancy of platform (APP/PS1 transgenic mice; 1.5 mg/kg daily for one month): 2653.3 mm | first time of crossing platform (APP/PS1 transgenic mice; 1.5 mg/kg daily for one month): 22.7 s | time spent of IV quadrant (APP/PS1 transgenic mice; 1.5 mg/kg daily for one month): 17.7 s | time, I quadrant occupancy of platform (APP/PS1 transgenic mice; 1.5 mg/kg daily for one month): 8.9 s | times of crossing platform (APP/PS1 transgenic mice; 1.5 mg/kg daily for one month): 2.2 | Adjusted average distance of approaching to platform (APP/PS1 transgenic mice; 3 mg/kg daily for one month): 572.5 mm | Swimming path, I quadrant occupancy of platform (APP/PS1 transgenic mice; 3 mg/kg daily for one month): 2636.1 mm | first time of crossing platform (APP/PS1 transgenic mice; 3 mg/kg daily for one month): 21.8 s | time spent of IV quadrant (APP/PS1 transgenic mice; 3 mg/kg daily for one month): 19.5 s | time, I quadrant occupancy of platform (APP/PS1 transgenic mice; 3 mg/kg daily for one month): 9.2 s | times of crossing platform (APP/PS1 transgenic mice; 3 mg/kg daily for one month): 2.3 | dose dependence of effects in Morris water maze test (APP/PS1 transgenic mice; APP/PS1 transgenic mice, 0.375-3 mg/kg): good dose-dependent effects | effect on spatial memory and cognitive impairment (APP/PS1 transgenic mice; APP/PS1 transgenic mice, Morris water maze test): significantly improved spatial memory and cognitive impairment | hydrate form in which the compound stably exists ([1]; dynamic vapor sorption analysis): nonahydrate | hygroscopicity variety under the normal moist environment for storage ([1]; listed as crystalline form B of pyrroloquinoline quinine lithium salt): 5-10% | hydrate form ([1]; relative humidity (RH) from 20% to 50%): monohydrate | hydrate form ([1]; relative humidity (RH) from 70% to 100%): dihydrate | hygroscopicity ([1]; relative humidity (RH) of 65%, listed as crystalline form B of pyrroloquinoline quinine lithium salt): 8.4% | hygroscopicity ([1]; relative humidity (RH) of 80%, listed as crystalline form B of pyrroloquinoline quinine lithium salt): 13.9%

O=C([O-])c1cc(C(=O)[O-])c2c(n1)C(=O)C(=O)c1cc(C(=O)[O-])[nH]c1-2.[Li+].[Li+].[Li+] [Pyrroloquinoline quinine lithium salt, trilithium derivative of pyrroloquinoline quinine]
effect on glycogen synthase kinase-3 activities (GSK-3) [2]: suppress the glycogen synthase kinase-3 activities

O=C([O-])c1cc(C(=O)[O-])c2c(n1)C(=O)C(=O)c1cc(C(=O)[O-])[nH]c1-2.[Li+].[Li+].[Li+] [trilithium derivative of pyrroloquinoline quinine, reference compound]
crystalline solid (assessment in words) ([1]; after the hygroscopicity comparison): not good | hygroscopicity variety under the normal moist environment for storage [1]: 5-25% | hygroscopicity ([1]; relative humidity (RH) of 65%): 25.3% | hygroscopicity ([1]; relative humidity (RH) of 80%): 32.6%

From patent US9738639B2, “Pyrroloquinoline quinone lithium salt crystal and preparation method and application thereof” (SHANGHAI RI XIN BIOTECHNOLOGY CO., LTD., priority 2013, dated 2017)
